In US8119589B2, “Modulation of CD4+ T cell responses by a tick saliva protein, Salp15 and polypeptides derived therefrom” (University of North Carolina at Charlotte, priority 2004, dated 2012):
Where a SMILES comes first, the peptide text is derived from it.

How the values were obtained:
sCD4 = target: T1, sCD4 (Homo sapiens, UniProt P01730); experiment: Microtiter binding of sCD4-HRP to plate-bound Salp15 and synthetic peptides
T1 construct: the extracellular four domains of CD4 (sCD4); purchased Research Diagnostics Inc., Flanders, N.J., U.S.A
Protocol: Purified sCD4 was coated overnight at 4° C. at the indicated concentrations in 0.1M sodium carbonate buffer (pH 9.5) in 96 well plates. Equimolar amounts of lysozyme were used as a non-specific control. The wells were washed, blocked with 10% FCS/PBS for 1 hr at R.T., and incubated with Salp15 (0.4 μM) for 2 hr at 37° C. Salp15 binding was detected by incubation with horseradish peroxidase (HRP)-conjugated anti-His antibody for 1 hr followed by microwell peroxidase substrate (KPL). The reaction was stopped by adding TMB stop solution (KPL). Chemically synthesized overlapping peptides of Salp15 were purchased from GenScript Corporation (Piscataway, N.J., U.S.A). To study the binding of Salp15 and peptides to sCD4, Salp15 (5 μg) and different peptides (0.5 μg) were coated. The wells were washed and blocked prior to incubation with sCD4-HRP (Research Diagnostics Inc., Flanders, N.J., U.S.A.). For competition assays, indicated concentrations of Salp15 or P11 were added to sCD4-HRP and incubated with plate bound P11 (0.1 μg). To estimate the effect of dithiothreitol (DTT) treatment of Salp15 on binding to sCD4, 0.5 μM Salp15 was treated with 10 mM DTT overnight and immobilized onto microtiter plate followed by blocking and incubation with sCD4-HRP.
Dissociation constants were determined by non-linear curve fit. The results are expressed as the mean±S.E. of 3 to 5 individual experiments.

CD4+ T cells [1] = experiment: IL-2 production (capture ELISA) by CD4+ T cells activated with plate bound anti-CD3 and soluble anti-CD28; format: cell-based, mouse; conditions: for Inhibition of CD4+ T cell IL-2 production: pretreatment with peptide, 24 hr of activation
Protocol: FIG. 6D is a graph showing purified CD4^+ T cells were activated in vitro with plate bound anti-CD3 and soluble anti-CD28 in the absence or presence of Salp15 (50 μg/mL), P11, or P8. The supernatants were analyzed at 24 hr of activation for IL-2 levels by capture ELISA.
(§1) Naïve CD4+ T cells from C3H/HeN, Balb/c, and B10.BR mice were purified as previously described (Anguita et al., 2002). CD4+ T cells were preincubated in Click's modified Bruff's Medium (Sigma Chemical Co., St. Louis, Mo., U.S.A.) for 10 minutes at 37° C. with and without Salp15 (50 μg/mL) and stimulated for 20 min or the indicated times at 37° C. with 10 μg/mL of anti-CD3ε, 1 μg/mL of anti-CD28, and 10 μg/mL of anti-armenian and syrian hamster IgG (BD Biosciences Pharmingen, San Jose, Calif., U.S.A.). Jurkat (E6-1) cells were stimulated using 5 μg/mL of OKT3 mAb (eBioscience, San Diego, Calif., U.S.A.) and 1 μg/mL of anti-human CD28 cross linked with 5 μg/mL anti-mouse IgG for the indicated times.

CD4+ T cells [2] = experiment: Lipid raft redistribution (CTB594 staining, receptor capping) in activated CD4+ T cells; format: cell-based, mouse; conditions: pretreatment with peptide 0.2 μg/mL; anti-CD3/CD28 20 min
Protocol: as §1
For the visualization of lipid rafts, phospho-tyrosine, and cytoskeleton reorganization, CD4^+, CD8^+ or Jurkat cells were cytospun for 10 minutes at 1000 RPM onto positively charged microslides (Fisher Scientific, Hampton, N.H., U.S.A.). The cells were fixed with 3.7% paraformaldehyde (Sigma Chemical Co.) for 15 minutes and stained with CTB594 (Molecular Probes, Eugene, Oreg., U.S.A.), AlexaFluor488 labeled phalloidin (Molecular Probes) or (1:50) biotin-conjugated anti-p-Tyr (PY99) followed by Streptavidin-AlexaFluor594 (1:100, Molecular Probes). For p-LAT and p-PLCγ1 staining, fixed cells were treated with PBS containing 0.1% Triton-X 100 and 100 mM glycine for 15 min at room temperature and stained using rabbit p-LAT (Tyr^191) or rabbit anti-p-PLCγ1 (Tyr^783) probed with anti-rabbit IgG488 (Molecular Probes).
For receptor capping studies, mouse primary B and CD11^+ cells were purified by positive selection using biotin anti-mouse CD45R/B220 clone RA3-6B2 and biotin anti-mouse CD11b clone M1/70 (BD Biosciences Pharmingen) respectively, followed by incubation with magnetic microbeads. The cells were analyzed for receptor capping using 25 μg/mL anti-mouse IgM and 25 μg/mL anti-mouse CD16/CD32 respectively, cross-linked with 25 μg/mL of anti-rat IgG594 for 10 min in the presence or absence of 50 μg/mL of Salp15. […]

“NCTFLCKHGNDVNVTLNLPE (listed as Ixodes scapularis) [Peptide P8]” was tested, and the “Saturable binding to sCD4 with increasing concentrations” value (sCD4) was “no binding”, the “Inhibition of CD4+ T cell IL-2 production” value (CD4+ T cells [1]) was “did not exert any inhibition” and the “Lipid rafts clustering in response to T cell activation” value (CD4+ T cells [2]) was “did not show any effect”.
For “EKNKCVGHIPGC (listed as Ixodes scapularis) [Peptide P11-2]”, the “Saturable binding to sCD4 with increasing concentrations” value (sCD4) was “saturable binding” and the “Activity for modulating naïve CD4+ T cell activation among the tested polypeptide fragments” value (CD4+ T cells [1]) was “highest activity”.
CC[C@H](C)[C@H](NC(=O)[C@H](Cc1c[nH]cn1)NC(=O)CNC(=O)[C@@H](NC(=O)[C@H](CS)NC(=O)[C@H](CCCCN)NC(=O)[C@H](CC(N)=O)NC(=O)[C@H](CCCCN)NC(=O)[C@H](CCC(=O)O)NC(=O)[C@H](C)NC(=O)[C@H](CS)NC(=O)[C@@H](NC(=O)[C@H](CCC(N)=O)NC(=O)CNC(=O)[C@H](CC(N)=O)NC(=O)[C@@H]1CCCN1C(=O)CN)[C@@H](C)O)C(C)C)C(=O)N1CCC[C@H]1C(=O)NCC(=O)N[C@@H](CS)C(=O)O [Peptide P11] (H-GPNGQTCAEKNKCVGHIPGC-OH; N-terminus and C-terminus assumed) was tested, and the “Binding of overlapping synthetic peptides to sCD4” value (sCD4; peptides 0.5 μg coated, sCD4-HRP) was “showed binding”, the “Activity for modulating naïve CD4+ T cell activation among the tested polypeptide fragments” value (CD4+ T cells [1]) was “highest activity” and the “Inhibition of CD4+ T cell IL-2 production” value (CD4+ T cells [1]) was “dose dependent inhibition”. The “Lipid rafts clustering in response to T cell activation” value (CD4+ T cells [2]) was “reduction”.
